Experimental data: patent US12351556B2, “Pyridin-2(1H)one derivatives, their preparation and their use for the treatment of pain” (INSTITUT NATIONAL DE LA SANTE ET DE LA RECHERCHE MEDICALE …, priority 2019, dated 2025)
“Also recorded” adds a separate entry of the source.

Tests used:
[1] = system: inflammatory MA (face CFA model); experiment: Face Complete Freund's Adjuvant (CFA) model of inflammatory mechanical allodynia; format: in vivo; settings: rat, 10 mg/kg intra-peritoneally, 30 min before CFA
[2] = system: inflammatory MA (face CFA model); experiment: as above; format: in vivo; settings: rat
Experimental: FIG. 1 illustrates the results obtained by the intracisternal application of compounds 19-24, 66-72 and 74-82. These compounds prevent face MA in a rat model of inflammatory pain (Complete Freund's Adjuvant (CFA), n=4-6 rats for each compound). For this assay, compounds (5 μL at 100 μM) or control vehicle were intra-cisternally administred 30 min before CFA injection.
Face Complete Freund's Adjuvant (CFA) Model.
CFA (Becton Dickinson) was dissolved in saline solution containing Tween 80 and paraffin oil and conserved at 4° C. For the behavioral tests, animals were briefly (<2 min) anesthetized using a mask with 2% isoflurane and received a subcutaneous injection of 25 μL of CFA (2.5 mg/kg) solution into the right vibrissa pad using a 27 Ga needle coupled to a 25 μL Hamilton syringe, as described previously. After injection, animals were awakened from anesthesia and placed in the behavioral experimental room, followed by a 120 min mechanical testing period.
Intracisternal Injection:
For investigating the effects of synthetized compounds upon mechanical allodynia, animals were briefly (<2 min) anesthetized using a mask with 2% isoflurane and received an intracisternal injection of 5 μL of compound (100 μM) or vehicle alone (saline+1% DMSO) using a 10 μL Hamilton syringe. After recovery (<2 min), rats were placed in an observation field (0.6×0.6 m square) under red light for a period test. 6-g von Frey filament was gently applied every 15 or 30 min onto the orofacial region by a first experimenter. The behavioral responses were observed and quantified by a second experimenter (see below).
Behavioral Responses to Normally Innocuous (6-g Von Frey Filament) Mechanical Stimulation.
The behavioral responses procedure was previously developed by Vos et al. 1994. A rat's response to mechanical stimulation consisted of one or more of the following elements: (1) detection, rat turn head toward stimulus; (2) withdrawal reaction, rat pull paw away or turn head away or pull it briskly backward when stimulation is applied (a withdrawal reaction is assumed to include a detection element preceding the head withdrawal and therefore consists of two responses elements); (3) escape/attack, rats avoid further contact with the stimulus, either passively by moving their bodies away from the stimulus, or actively by attacking the tip of the […]; (4) asymmetric grooming, rats display an uninterrupted series of at least three wash strokes directed to the stimulated area.
The in vivo efficacy of some compounds was evaluated on a rat model of inflammatory MA (face CFA model; Alba-Delgado et al J. Neurosci. 2018, 38, 10489-10504) (FIG. 1). After receiving a subcutaneous injection of 25 μL of CFA (2.5 mg/kg) into the right vibrissa pad, rats develop a MA that lasts days. […] In this model of inflammatory MA, MA was suppressed in compound 69 treated rats, in comparison to animals treated with vehicle (FIG. 2A).

SMILES: O=c1[nH]cc(Nc2ccccc2)cc1-c1ccccc1Br [Compound 69, 3-(2-Bromophenyl)-5-(phenylamino)pyridin-2(1H)-one]
- prevention of inflammatory MA (allodynic score), systemic application [1]: completely suppressed
- prevention of inflammatory MA (allodynic score), compared with skepinone ([2]; intracisternal 5 μL at 10 μM or 100 μM, 30 min before CFA, skepinone 60 μg/rat): completely suppressed; also recorded: much more potent than skepinone
- prevention of inflammatory MA (allodynic score, 6-g von Frey filament) ([2]; intracisternal 5 μL at 100 μM, 30 min before CFA): most active; also recorded: high activities; also recorded: potent preventing effect; also recorded: completely suppressed
- inhibition of inflammatory MA ([2]; intracisternal 5 μL at 100 μM, 30 min before CFA injection): 99%
